“Also recorded” adds a separate entry of the source.
Experiments:
[1] = LCMS drug levels in porcine lymph tissue from the anterior jugular chain; format: in vivo, pig; conditions: released from implanted device; necropsy at 0, 48, 120, 240 and 336 hrs; FIGS. 12 and 13
From the text: (§1) Devices produced in accordance with the methods of EXAMPLE 1 were implanted into tonsillectomized pigs.
(§2) The specific LCMS method used for detection of Bupivacaine and Lidocaine has been validated in work by Hoizey et al (2005) (Hoizey G, et al. Sensitive bioassay of bupivacaine in human plasma by liquid-chromatography-ion trap mass spectrometry. Journal of pharmaceutical and biomedical analysis. 2005; 39:587-92).
(§3) The specific LCMS method used for detection of Bupivacaine and Lidocaine has been validated in work by Hoizey et al (2005).

[2] = LCMS drug levels in porcine serum from the internal jugular vein; format: in vivo, pig; conditions: released from implanted device; 0, 1, 2, 4, 24, 48, 72, 120, 240, 336 hrs; FIGS. 14 and 15
From the text: as §1, §2, §3

[3] = Qualitative sample analysis (Q1 test) of released drug by LCMS; format: physicochemical; conditions: drug released from the device; chromatograms, FIGS. 7 and 8
Description: Qualitative sample analysis (or Q1 test) was performed on select samples to assure single spikes were detected at frequencies consistent with calibration curves and that no secondary spikes were detected (indicating LCMS detection of single molecules without breakdown products).

| SMILES | drug level detected in locoregional (lymph) tissue [1] [microgram per ml] | drug level detected in serum (systemic uptake) [2] [microgram per ml] | integrity of the released drug molecule (no breakdown products) [3] |
| --- | --- | --- | --- |
| CCCCN1CCCCC1C(=O)Nc1c(C)cccc1C (centres unmarked) [bupivacaine] | < 4 | < 4 | active form is preserved; also recorded: complete, intact bupivacaine molecule |
| CCN(CC)CC(=O)Nc1c(C)cccc1C [lignocaine] | < 5.6 |  | active form is preserved; also recorded: complete, intact lignocaine molecule |

From patent publication US20230061352A1, “DRUG DELIVERY DEVICE” (priority 2020, published 2023)
